{"source": "paper PMC4479019", "about": "“Atomistic design of microbial opsin-based blue-shifted optogenetics tools” (Nature Communications, 2015)", "test_in_all_cases": "absorption spectrum of purified protein", "assay_type_in_all_cases": "binding", "conditions_in_all_cases": "covalent (protonated Schiff base); 1 M NaCl, 0.05% DDM, pH 7.0", "key": {"HwBR": {"target": "T1, HwBR (Haloquadratum walsbyi, UniProt Q18DH8)", "T1 construct": "gene bop1", "T1 sequence (Q18DH8 7-254)": "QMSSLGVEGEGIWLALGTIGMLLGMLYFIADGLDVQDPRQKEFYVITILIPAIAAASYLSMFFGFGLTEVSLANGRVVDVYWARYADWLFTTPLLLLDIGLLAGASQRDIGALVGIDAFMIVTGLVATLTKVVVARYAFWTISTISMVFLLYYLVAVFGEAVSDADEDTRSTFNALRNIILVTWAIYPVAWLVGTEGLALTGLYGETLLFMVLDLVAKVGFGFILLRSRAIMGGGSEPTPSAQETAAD"}, "AR3 (archaerhodopsin-3)": {"target": "T2, AR3 (archaerhodopsin-3) (Halorubrum sodomense, UniProt P96787, M128A/G132A/S151G/A225T)", "T2 construct": "gene aop3", "T2 sequence (P96787 7-258 M128A/G132A/S151G/A225T)": "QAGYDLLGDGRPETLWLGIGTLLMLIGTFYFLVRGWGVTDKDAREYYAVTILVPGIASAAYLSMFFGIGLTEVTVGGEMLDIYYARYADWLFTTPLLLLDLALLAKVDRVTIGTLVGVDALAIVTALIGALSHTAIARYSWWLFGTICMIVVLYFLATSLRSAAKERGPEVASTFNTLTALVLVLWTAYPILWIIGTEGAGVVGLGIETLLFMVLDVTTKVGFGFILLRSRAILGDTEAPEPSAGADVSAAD"}, "GR": {"target": "T3, GR (Gloeobacter violaceus, UniProt Q7NP59)", "T3 construct": "gene gll0198", "T3 sequence (Q7NP59 1-298)": "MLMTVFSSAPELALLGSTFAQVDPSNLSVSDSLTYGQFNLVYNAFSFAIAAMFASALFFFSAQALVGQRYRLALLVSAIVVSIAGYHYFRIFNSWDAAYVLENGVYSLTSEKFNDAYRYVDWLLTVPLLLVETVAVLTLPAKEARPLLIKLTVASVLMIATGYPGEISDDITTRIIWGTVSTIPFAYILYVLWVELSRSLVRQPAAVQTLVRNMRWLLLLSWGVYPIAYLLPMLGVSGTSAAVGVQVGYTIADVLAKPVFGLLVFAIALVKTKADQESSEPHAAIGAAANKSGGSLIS"}}, "data": [{"smiles": "CC1=C(/C=C/C(C)=C/C=C/C(C)=C/C=O)C(C)(C)CCC1", "note": "[all-trans retinal]", "values": [{"measurement": "absorption spectrum of purified protein", "setting": "HwBR", "result": "Absorption spectra of wild-type and colour variants of HwBR (a) and GR (b)"}, {"measurement": "absorption spectrum of purified protein", "setting": "AR3 (archaerhodopsin-3)", "result": "The M128A/G132A/S151G/A225T and M128A/S151A/A225T mutants slightly reduced the shifts"}, {"measurement": "absorption spectrum of purified protein", "setting": "GR", "result": "Absorption spectra of wild-type and colour variants of HwBR (a) and GR (b)"}]}]}
